The structures appear in SMILES notation.

Format in all cases: cell-based
The subject of test [1] is Mycosphaerella arachidis (syn. Cercospora arachidicola). The test is described as follows: Mycosphaerella arachidis (syn. Cercospora arachidicola) growth inhibition in nutrient broth (microtiter plate, photometric). Conditions: approximately 5-6 days. As for the experimental part: Brown leaf spot of groundnut (peanut): Conidia of the fungus from cryogenic storage were directly mixed into nutrient broth (potato dextrose broth). After placing a (DMSO) solution of the test compounds into a microtiter plate (96-well format) the nutrient broth containing the fungal spores was added. The test plates were incubated at 24° C. and the inhibition of growth was determined photometrically after approximately 5-6 days at 620 nm. Two replicates per treatment were evaluated

The subject of test [2] is Gaeumannomyces graminis. The test can be described thus: Gaeumannomyces graminis growth inhibition in nutrient broth (microtiter plate, photometric). Conditions: 48 hours. As for the experimental part: Mycelial fragments of the fungus from cryogenic storage were directly mixed into nutrient broth (potato dextrose broth). After placing a (DMSO) solution of the test compounds into a microtiter plate (96-well format) the nutrient broth containing the fungal spores was added. The test plates were incubated at 24° C. and the inhibition of growth was determined photometrically after 48 hours at 620 nm. Two replicates per treatment were evaluated.

In test [3] the test system is Septoria tritici. The test is described as follows: Septoria tritici (leaf blotch) growth inhibition in nutrient broth (microtiter plate, photometric). Conditions: 72 hours. As for the experimental part: Conidia of the fungus from cryogenic storage were directly mixed into nutrient broth (potato dextrose broth). After placing a (DMSO) solution of the test compounds into a microtiter plate (96-well format) the nutrient broth containing the fungal spores was added. The test plates were incubated at 24° C. and the inhibition of growth was determined photometrically after 72 hours. Two replicates per treatment were evaluated.

As for `Cn1cc(C(=O)Nc2cccc3c2C2CCC3C2=C(Cl)Cl)c(C(F)F)n1` (centres unmarked) [C-IIIA], the Observed control % in test [1] (C-IIIA 0.0156 ppm alone) is listed as 20.0%; in test [1] (C-IIIA 0.0313 ppm alone), 90.0%.

On to `CO/C=C(/C(=O)OC)c1ccccc1Oc1cc(Oc2ccccc2C#N)ncn1` [azoxystrobin, Azoxystrobin], for which the Observed control % was 0.0% in test [2] (azoxystrobin 0.0625 ppm alone); 20.0% in test [2] (azoxystrobin 0.1250 ppm alone); 20.0% in test [2] (azoxystrobin 0.2500 ppm alone); 50.0% in test [2] (azoxystrobin 0.5000 ppm alone); 50.0% in test [2] (azoxystrobin 1.0000 ppm alone); 50.0% in test [2] (azoxystrobin 2.0000 ppm alone).

Take `CC(C1CC1)C(O)(Cn1cncn1)c1ccc(Cl)cc1` (centres unmarked) [cypropconazole, Cyproconazole]: the Observed control % in test [3] (cypropconazole 0.0625 ppm alone) was 0.0%; in test [3] (cypropconazole 0.1250 ppm alone) it was 0.0%; in test [3] (cypropconazole 0.2500 ppm alone), 0.0%; in test [3] (cypropconazole 0.5000 ppm alone), 70.0%; in test [3] (cypropconazole 1.0000 ppm alone) it was 90.0%; in test [3] (cypropconazole 2.0000 ppm alone), 90.0%.

For the origin of these results see patent US9439431B2, “Pesticidal mixtures comprising isoxazoline derivatives” (Syngenta Participations AG, priority 2011, dated 2016).
